Assay [1] deals with dihydrotestosterone secretion in TM3 cells. Briefly: Dihydrotestosterone secreted by TM3 cells (ELISA). The conditions noted are these: sildenafil 200 μg/mL, positive control in dihydrotestosterone test, FIG. 16. It counts as cell-based, mouse. On the procedure:
3. Dihydrotestosterone (DHT) Content
TM3 cells was cultured with the oyster peptide culture solution for 24 h, the obtained culture solution was centrifuged, a supernatant was taken and mixed uniformly, and the content of dihydrotestosterone was detected according to instructions of ELISA kit.
Operation procedure for detecting dihydrotestosterone: (1) Standards were added into standard wells at 50 μL/well. (2) 40 μL of sample diluent was added to sample wells and then 10 μL of the sample to be tested was added, and nothing was added to the blank wells. (3) The reaction wells were sealed with the plate-sealing film and incubated at 37° C. for 45 min. […] (10) A stop solution was added at 50 μL/well and mixed uniformly and then the OD450 value was measured.
Dihydrotestosterone is a steroid hormone secreted by testes and a main male hormone in the human body, is related to the development of male secondary sexual characteristics and plays an important role in maintaining normal sexual desire. In this test example, the oyster peptide culture solutions of Example 1 at different concentrations and the oyster peptide culture solutions of Examples 1-3 and Comparative Examples 1-4 at the same concentration were used to treat TM3 cells for 24 h, and then the supernatants of cells were collected, and the contents of dihydrotestosterone secreted by the cells were measured by the ELISA method. […]

The test system of a further assay is NO content in TM3 cells. Briefly: NO content in TM3 cells (NO determination kit). It is filed as cell-based, mouse. The conditions noted are these: sildenafil 200 μg/mL, vs control group (p<0.05), FIG. 18. On the procedure:
4. Detection of NO Content
TM3 cells were cultured with the oyster peptide culture solution for 24 h, the obtained culture solution was centrifuged, a supernatant was taken and mixed uniformly, and the content of NO was detected according to instructions of NO determination kit.
Operation procedure for detecting NO: (1) Reagent preparation: all reagents were taken out and equilibrated to room temperature for use. (2) 100 μM standard working solution: 5 μL of concentrated standard was added to 495 μL of reaction buffer and mixed well. […] After the incubation was over, the microplate was taken out, placed into an incubator at 37° C. and further incubated for 60 min, and then taken out and placed into a microplate reader for reading at 540 nm. (5) Quantitative calculation of total nitric oxide in samples:
NO is a small fat-soluble molecule with unstable chemical properties and is produced by a catalyzed reaction of nitric oxide synthase in a body, and it can cause the expansion of blood vessels in the body. […] The effect of the oyster peptide on the NO content in TM3 cells was detected according to the instructions of NO determination kit. […]

Turning to `CCCc1nn(C)c2c(=O)[nH]c(-c3cc(S(=O)(=O)N4CCN(C)CC4)ccc3OCC)nc12` [sildenafil], the “dihydrotestosterone secreted by TM3 cells” value in assay [1] is recorded as “significantly promoting”. Besides, the “NO content in TM3 cells” value with NO content in TM3 cells was “increased significantly”.

Source of the values: US12389931B2, “Oyster peptide with effect of improving sexual function and preparation method thereof” (priority 2019, dated 2025).
